Assay results from ChEMBL document CHEMBL3885881, “DrugMatrix”.

Organism: Rattus norvegicus
Experiment: DrugMatrix - Regimen: Daily Repeat
Type: toxicity, organism-based, Sprague-Dawley
Set-up: regimen Daily Repeat, gender Male, age 6-8 weeks
Conditions: in vivo, po, route oral GAVAGE, vehicle .5 % CMC; for BASOPHIL / EOSINOPHIL / ERYTHROCYTE COUNT / HEMATOCRIT / HEMOGLOBIN / LEUKOCYTE COUNT / LYMPHOCYTE / MEAN CORPUSCULAR HEMOGLOBIN / MEAN CORPUSCULAR HEMOGLOBIN CONCENTRATION / MEAN CORPUSCULAR VOLUME / MONOCYTE / NEUTROPHIL / PLATELET COUNT: tissue Blood; for ALANINE AMINOTRANSFERASE / ALBUMIN / ALKALINE PHOSPHATASE / ASPARTATE AMINOTRANSFERASE / BLOOD UREA NITROGEN / CARBON DIOXIDE / CHLORIDE / CHOLESTEROL / CREATINE PHOSPHOKINASE / CREATININE / GLUCOSE / LACTATE DEHYDROGENASE / LIPASE / PHOSPHORUS / POTASSIUM / SODIUM / TOTAL BILIRUBIN / TOTAL PROTEIN / URIC ACID: tissue Plasma
[1] = 0 mg/kg, 96 h, dose level Control, time 4 day
[2] = 0 mg/kg, […], dose level Control, time 6 day
[3] = 0 mg/kg, […], dose level Control, time 14 day
[4] = […], 96 h, dose 4.6 mg/Kg, dose level High, time 4 day
[5] = […], dose 4.6 mg/Kg, dose level High, time 6 day
[6] = […], dose 4.6 mg/Kg, dose level High, time 14 day

COc1ccc(C(=O)Nc2c(Cl)c[n+]([O-])cc2Cl)c2ccc(C(F)(F)F)nc12 [SCH-351591]
BASOPHIL [1]: 0.5%
EOSINOPHIL [1]: 1.85%
ERYTHROCYTE COUNT [1]: 6.99 x10E6/uL
HEMATOCRIT [1]: 43.82%
HEMOGLOBIN [1]: 13.87 G/DL
LEUKOCYTE COUNT [1]: 12.01 x10E3/uL
LYMPHOCYTE [1]: 82.07%
MEAN CORPUSCULAR HEMOGLOBIN [1]: 19.8 pg
MEAN CORPUSCULAR HEMOGLOBIN CONCENTRATION [1]: 31.63 G/DL
MEAN CORPUSCULAR VOLUME [1]: 62.7 fL
MONOCYTE [1]: 2.6%
NEUTROPHIL [1]: 12.38%
PLATELET COUNT [1]: 1155 x10E3/uL
ALANINE AMINOTRANSFERASE [1]: 31.67 u/L
ALBUMIN [1]: 4.12 G/DL
ALKALINE PHOSPHATASE [1]: 396 u/L
ASPARTATE AMINOTRANSFERASE [1]: 75.67 u/L
BLOOD UREA NITROGEN [1]: 17.5 mg/dL
CARBON DIOXIDE [1]: 28.83 mmol/L
CHLORIDE [1]: 103.83 MEQ/L
CHOLESTEROL [1]: 84.83 mg/dL
CREATINE PHOSPHOKINASE [1]: 597.17 u/L
CREATININE [1]: 0.3 mg/dL
GLUCOSE [1]: 161.5 mg/dL
LACTATE DEHYDROGENASE [1]: 138.67 u/L
LIPASE [1]: 11.5 u/L
PHOSPHORUS [1]: 11.58 mg/dL
POTASSIUM [1]: 6.87 MEQ/L
SODIUM [1]: 146.83 MEQ/L
TOTAL BILIRUBIN [1]: 0.38 mg/dL
TOTAL PROTEIN [1]: 6.33 G/DL
URIC ACID [1]: 1.37 mg/dL
BASOPHIL [2]: 0.37%
EOSINOPHIL [2]: 0.38%
ERYTHROCYTE COUNT [2]: 6.89 x10E6/uL
HEMATOCRIT [2]: 47.38%
HEMOGLOBIN [2]: 14.8 G/DL
LEUKOCYTE COUNT [2]: 13.59 x10E3/uL
LYMPHOCYTE [2]: 80.27%
MEAN CORPUSCULAR HEMOGLOBIN [2]: 21.52 pg
MEAN CORPUSCULAR HEMOGLOBIN CONCENTRATION [2]: 31.22 G/DL
MEAN CORPUSCULAR VOLUME [2]: 68.83 fL
MONOCYTE [2]: 2.78%
NEUTROPHIL [2]: 15.65%
PLATELET COUNT [2]: 1330.17 x10E3/uL
BASOPHIL [3]: 0.38%
EOSINOPHIL [3]: 0.6%
ERYTHROCYTE COUNT [3]: 7.78 x10E6/uL
HEMATOCRIT [3]: 48.3%
HEMOGLOBIN [3]: 15.42 G/DL
LEUKOCYTE COUNT [3]: 13.55 x10E3/uL
LYMPHOCYTE [3]: 81.18%
MEAN CORPUSCULAR HEMOGLOBIN [3]: 19.8 pg
MEAN CORPUSCULAR HEMOGLOBIN CONCENTRATION [3]: 31.92 G/DL
MEAN CORPUSCULAR VOLUME [3]: 62.08 fL
MONOCYTE [3]: 1.72%
NEUTROPHIL [3]: 15.17%
PLATELET COUNT [3]: 1083.83 x10E3/uL
ALANINE AMINOTRANSFERASE [2]: 36 u/L
ALBUMIN [2]: 4.03 G/DL
ALKALINE PHOSPHATASE [2]: 354.17 u/L
ASPARTATE AMINOTRANSFERASE [2]: 76.5 u/L
BLOOD UREA NITROGEN [2]: 19.33 mg/dL
CARBON DIOXIDE [2]: 27.83 mmol/L
CHLORIDE [2]: 105.5 MEQ/L
CHOLESTEROL [2]: 68.83 mg/dL
CREATINE PHOSPHOKINASE [2]: 383.83 u/L
CREATININE [2]: 0.35 mg/dL
GLUCOSE [2]: 165.83 mg/dL
LACTATE DEHYDROGENASE [2]: 155.17 u/L
LIPASE [2]: 9.83 u/L
PHOSPHORUS [2]: 12.4 mg/dL
POTASSIUM [2]: 6.9 MEQ/L
SODIUM [2]: 147.33 MEQ/L
TOTAL BILIRUBIN [2]: 0.52 mg/dL
TOTAL PROTEIN [2]: 6.42 G/DL
URIC ACID [2]: 1.6 mg/dL
ALANINE AMINOTRANSFERASE [3]: 36.83 u/L
ALBUMIN [3]: 4.13 G/DL
ALKALINE PHOSPHATASE [3]: 328.17 u/L
ASPARTATE AMINOTRANSFERASE [3]: 74.83 u/L
BLOOD UREA NITROGEN [3]: 18.67 mg/dL
CARBON DIOXIDE [3]: 29.33 mmol/L
CHLORIDE [3]: 105.17 MEQ/L
CHOLESTEROL [3]: 72 mg/dL
CREATINE PHOSPHOKINASE [3]: 217.67 u/L
CREATININE [3]: 0.45 mg/dL
GLUCOSE [3]: 151.17 mg/dL
LACTATE DEHYDROGENASE [3]: 133.17 u/L
LIPASE [3]: 14.5 u/L
PHOSPHORUS [3]: 11.55 mg/dL
POTASSIUM [3]: 6.77 MEQ/L
SODIUM [3]: 149.33 MEQ/L
TOTAL BILIRUBIN [3]: 0.37 mg/dL
TOTAL PROTEIN [3]: 6.62 G/DL
URIC ACID [3]: 1.57 mg/dL
BASOPHIL [4]: 0.27%
EOSINOPHIL [4]: 1.13%
ERYTHROCYTE COUNT [4]: 6.53 x10E6/uL
HEMATOCRIT [4]: 40.97%
HEMOGLOBIN [4]: 13.13 G/DL
LEUKOCYTE COUNT [4]: 18.12 x10E3/uL
LYMPHOCYTE [4]: 79.83%
MEAN CORPUSCULAR HEMOGLOBIN [4]: 20.13 pg
MEAN CORPUSCULAR HEMOGLOBIN CONCENTRATION [4]: 32.1 G/DL
MEAN CORPUSCULAR VOLUME [4]: 62.73 fL
MONOCYTE [4]: 2.33%
NEUTROPHIL [4]: 15.77%
PLATELET COUNT [4]: 1324.67 x10E3/uL
ALANINE AMINOTRANSFERASE [4]: 40.33 u/L
ALBUMIN [4]: 3.93 G/DL
ALKALINE PHOSPHATASE [4]: 341 u/L
ASPARTATE AMINOTRANSFERASE [4]: 77 u/L
BLOOD UREA NITROGEN [4]: 21.33 mg/dL
CARBON DIOXIDE [4]: 23.33 mmol/L
CHLORIDE [4]: 105 MEQ/L
CHOLESTEROL [4]: 88 mg/dL
CREATINE PHOSPHOKINASE [4]: 540.67 u/L
CREATININE [4]: 0.4 mg/dL
GLUCOSE [4]: 177 mg/dL
LACTATE DEHYDROGENASE [4]: 256 u/L
LIPASE [4]: 18 u/L
PHOSPHORUS [4]: 12.67 mg/dL
POTASSIUM [4]: 6.37 MEQ/L
SODIUM [4]: 146.33 MEQ/L
TOTAL BILIRUBIN [4]: 0.37 mg/dL
TOTAL PROTEIN [4]: 6.23 G/DL
URIC ACID [4]: 1.67 mg/dL
BASOPHIL [5]: 0.33%
EOSINOPHIL [5]: 0.37%
ERYTHROCYTE COUNT [5]: 7.26 x10E6/uL
HEMATOCRIT [5]: 48.6%
HEMOGLOBIN [5]: 14.77 G/DL
LEUKOCYTE COUNT [5]: 20.98 x10E3/uL
LYMPHOCYTE [5]: 75.93%
MEAN CORPUSCULAR HEMOGLOBIN [5]: 20.37 pg
MEAN CORPUSCULAR HEMOGLOBIN CONCENTRATION [5]: 30.33 G/DL
MEAN CORPUSCULAR VOLUME [5]: 67.07 fL
MONOCYTE [5]: 2.13%
NEUTROPHIL [5]: 19.93%
PLATELET COUNT [5]: 1217.67 x10E3/uL
BASOPHIL [6]: 0.38%
EOSINOPHIL [6]: 0.52%
ERYTHROCYTE COUNT [6]: 7.4 x10E6/uL
HEMATOCRIT [6]: 46.48%
HEMOGLOBIN [6]: 14.82 G/DL
LEUKOCYTE COUNT [6]: 23.35 x10E3/uL
LYMPHOCYTE [6]: 67.1%
MEAN CORPUSCULAR HEMOGLOBIN [6]: 20.06 pg
MEAN CORPUSCULAR HEMOGLOBIN CONCENTRATION [6]: 31.86 G/DL
MEAN CORPUSCULAR VOLUME [6]: 62.92 fL
MONOCYTE [6]: 1.96%
NEUTROPHIL [6]: 28.36%
PLATELET COUNT [6]: 1247.4 x10E3/uL
ALANINE AMINOTRANSFERASE [5]: 24.33 u/L
ALBUMIN [5]: 3.9 G/DL
ALKALINE PHOSPHATASE [5]: 313.33 u/L
ASPARTATE AMINOTRANSFERASE [5]: 61.33 u/L
BLOOD UREA NITROGEN [5]: 17.67 mg/dL
CARBON DIOXIDE [5]: 25.67 mmol/L
CHLORIDE [5]: 108.33 MEQ/L
CHOLESTEROL [5]: 80.67 mg/dL
CREATINE PHOSPHOKINASE [5]: 190.33 u/L
CREATININE [5]: 0.47 mg/dL
GLUCOSE [5]: 161 mg/dL
LACTATE DEHYDROGENASE [5]: 82 u/L
LIPASE [5]: 43.33 u/L
PHOSPHORUS [5]: 12.93 mg/dL
POTASSIUM [5]: 6.5 MEQ/L
SODIUM [5]: 149.33 MEQ/L
TOTAL BILIRUBIN [5]: 0.43 mg/dL
TOTAL PROTEIN [5]: 6.13 G/DL
URIC ACID [5]: 1.47 mg/dL
ALANINE AMINOTRANSFERASE [6]: 34.6 u/L
ALBUMIN [6]: 3.96 G/DL
ALKALINE PHOSPHATASE [6]: 330.4 u/L
ASPARTATE AMINOTRANSFERASE [6]: 65.6 u/L
BLOOD UREA NITROGEN [6]: 21 mg/dL
CARBON DIOXIDE [6]: 26.2 mmol/L
CHLORIDE [6]: 106.4 MEQ/L
CHOLESTEROL [6]: 70 mg/dL
CREATINE PHOSPHOKINASE [6]: 225.2 u/L
CREATININE [6]: 0.48 mg/dL
GLUCOSE [6]: 157.4 mg/dL
LACTATE DEHYDROGENASE [6]: 185.6 u/L
LIPASE [6]: 29.2 u/L
PHOSPHORUS [6]: 11.86 mg/dL
POTASSIUM [6]: 6.36 MEQ/L
SODIUM [6]: 149.8 MEQ/L
TOTAL BILIRUBIN [6]: 0.38 mg/dL
TOTAL PROTEIN [6]: 6.36 G/DL
URIC ACID [6]: 1.84 mg/dL
